From patent publication US20150204850A1, “PRODUCTION OF BETA-CELLS” (Max-Planck-Gesellschaft zur Förderung der. Wissenschaften …, priority 2009, published 2015) come the findings set out here.

Marks after values point to notes of the source that are not given here.

For one test, the system named is β-cells. In words: STZ-mediated diabetes induction (β-cell depletion). The test is classed as in vivo, mouse. Conditions: mice, STZ 200 mg/kg intraperitoneally, single dose. An excerpt:
We reasoned that such cells might be capable of replacing lost β-cells in diabetic mice. […] A higher mortality rate was found among animals older than 4 weeks, as compared to younger mice. It should be noticed that these animals were already hyperglycemic and weakened prior to STZ injection due to a combined insulin insensitivity and β-cell failure to optimally respond to a glucose challenge (FIG. 24). […] Ten days post-injection, only few insulin-producing cells were detected (FIG. 7F-G). […]
We reasoned that the continuous β-cell neogenesis observed in double-transgenic animals might be able to rescue experimentally-induced diabetes. Therefore, the function of the newly formed β-cells was assessed in diabetic mice with more than 95% β-cell loss following STZ treatment. […] Also under these conditions, clusters of glucagon^+ cells were detected at one pole of the islets, adjacent to duct structures, such cells subsequently adopting a β-cell phenotype.
To assess the effects of glucagon on islet size, mice were injected intraperitoneally twice daily (every 12h) with 5 μg of glucagon and sacrificed after 3 weeks of treatment. […] Lastly, BrdU was injected intraperitoneally (200 μl of 100 μl/ml) and was detected by immunohistochemistry (Invitrogen).

The next test relates to POE::Glucre β-cells. Put plainly: Arginine and liraglutide tolerance tests. Format: in vivo, mouse. Conditions: 10-week old POE::Glucre; arginine 5 mg intravenously; lower than in younger animals.
The test system of test [1] is POE::Glucre pancreata. In words: Real time RT-PCR of selected transcripts in pancreata of POE::Glucre mice supplemented with glucagon. The test is classed as in vivo, mouse. The following applies: 6 week old POE::Glucre + glucagon for 3 weeks; WT/POE pancreata set at 100%. Here is the method: (§1) To assess the effects of glucagon on islet size, mice were injected intraperitoneally twice daily (every 12h) with 5 μg of glucagon and sacrificed after 3 weeks of treatment. For STZ-mediated diabetes induction, a freshly prepared 50 mg/ml solution in 0.1 mol/l sodium citrate, pH 4.5 was injected intraperitoneally (200 mg/kg). Lentivirus production and injection were performed as described previously (Xu et al., 2008). Lastly, BrdU was injected intraperitoneally (200 μl of 100 μl/ml) and was detected by immunohistochemistry (Invitrogen).
RNA isolation (RNAeasy, Qiagen) and cDNA synthesis (Supercript choice system, Invitrogen) were performed according to the manufacturer's instructions. cDNA synthesis for analyses aiming to detect Pax4 transcripts was performed using a mixture of eight Pax4-derived (and β-actin-derived) antisense oligonucleotides instead of the provided oligo-dT primers (FIG. 13B).
Quantitative RT-PCR were carried out using the QuantiTect SYBR Green RT-PCR Kit (Qiagen) and validated primers (Qiagen) according to the manufacturer's instructions. The PCR reactions and detection were performed on a Mastercycler® ep realplex cycler using GAPDH and HPRT1 as internal controls for normalization purposes.
The expression of the indicated genes was assayed in pancreatic tissues of POE::Glucre, POE::Glucre supplemented with glucagon, and glucagon-receptor mutant (GluR-KO) mice using age-matched tissues of WT and POE pancreata as reference (values set at 100%). POE::Glucre, but also GluR-KO pancreata display increased contents of Ngn3 and Reg3b transcripts. Additionally, an augmentation in β-cell-specific transcripts is outlined in POE::Glucre, whereas the expression of the α-cell marker genes is reduced Importantly, concomitantly with a significant decrease in Ngn3 and Reg3b transcript contents, a reduction in insulin- and glucagon-producing cell numbers (and associated marker genes) is evidenced in POE::Glucre animals supplemented with glucagon. All values are statistically significant (P<0.05, n>2) versus POE/WT.

In test [2] the test system is POE::Glucre pancreata. In words: Immunohistochemical cell counts and islet size in pancreata of mice supplemented with glucagon. The test is classed as in vivo, mouse. Here is the method:
We therefore hypothesized that the latter might be driven by the hypoglucagonemia resulting from the α- to β-cell conversion. To test this theory, we injected 3-week-old POE::Pdx1Cre, POE::Glucre, POE::Pax6cre, and control animals twice daily with glucagon during three weeks.
as §1
Tissues were fixed in 4% PFA overnight at 4° C., embedded in paraffin and 8-μm sections applied to slides. These sections were assayed as described previously (Collombat et al. 2003). In order to perform co-immunofluorescence, the GFP signal was bleached when necessary, as described (Collombat et al., 2007). The primary antibodies used were the following: mouse monoclonal anti-insulin, anti-glucagon ( 1/1000 —Sigma), anti-Ngn3 ( 1/2000—1F25A1B3, BCBC Antibody Core), anti-c-Myc ( 1/100 —Abcam); guinea pig anti-insulin, anti-glucagon ( 1/1000—Sigma); rabbit anti-somatostatin ( 1/600—Dako), anti-PP ( 1/200—Dako), anti-Nkx6.1 ( 1/3000), anti-Nkx2.2 ( 1/1000—kindly provided by T. Jessell), anti-Pax6 ( 1/500 Chemicon), anti-Pax4 ( 1/500), and anti-Arx ( 1/1000); chicken anti-β-galactosidase ( 1/500 Biozol); goat anti-Ngn3 ( 1/1000—kindly provided by M. Sander). The secondary antibodies ( 1/1000—Molecular Probes) used were: 594-alexa anti-mouse; 488-alexa anti-mouse; 594-alexa anti-rabbit; 488-alexa anti-rabbit; 594-alexa anti-guinea pig; 488-alexa anti-guinea pig. Pictures were processed using confocal microscopy. For quantification purpose, stained cells were counted manually on every tenth section and the count reported to the pancreatic area estimated in silico.
The counts in cells positive for the indicated genes are reported per square centimetre of pancreatic tissues of POE::Glucre, POE::Glucre supplemented with glucagon, and glucagon-receptor mutant (GluR-KO) mice using age-matched tissues of WT/POE pancreata as reference. It is worth noticing that, in animals ectopically expressing Pax4 in glucagon expression domains or in GluR-KO mice, Ngn3-producing cells reemerge (note for the latter that due to the bias introduced by the high background, this count should be considered as indicative). […] In the latter case, a concomitant decrease in BrdU-labelled proliferating cell numbers is highlighted (BrdU provided at 5 weeks of age, examination a week later). (n>2, **P<0.01, *P<0.05 using the POE/WT genotype as reference; ^##P<0.01, ^#P<0.05 using the POE::Glucre genotype as reference).

Another test relates to isolated islets. In words: Perifusion analysis of isolated islets (insulin release). The test is classed as cell-based, mouse. Conditions: 20 mM glucose + glucagon. From the text: […] (2003). […] Obviously, a decrease in digestion time/collagenase concentrations would not have permitted proper islet isolation. We anyway perifused the islets and observed no difference in islet function of younger animals for all the genotypes analyzed. However, in older counterparts, we did detect a decrease in the glucose-stimulated insulin release, albeit not significant. It should be noticed that such a lack of significance might be attributed to the loss of oversized islets induced by experimental conditions.

For the next test, the system named is POE::Glucre animals. Put plainly: Insulin challenge (overall responsiveness to insulin). The test is classed as in vivo, mouse. The following applies: older POE::Glucre animals; Actrapid insulin 0.75 mU/g subcutaneously. Here is the method: Note that 600 mg of glucose per dl of blood correspond to the maximal value detectable by our glucose monitoring system. […] However, due to the experimental conditions used, we noticed a disaggregating of the islets (Table 7) and therefore turned to an in vivo approach: (C) To determine the overall responsiveness to insulin, an insulin challenge was performed in animals of the indicated genotypes and ages. […] (D-F) Aiming to also assay β-cell function, we treated POE::Glucre animals of the indicated genotypes and ages with two insulin secretagogues, arginine and liraglutide (a long-acting GLP-1 analog—Novo Nordisk—Denmark).
Animals of the indicated genotypes were injected subcutaneously with Actrapid insulin (0.75 mU/g—Novo Nordisk—Denmark), intravenously with arginine (5 mg—Sigma) or subcutaneously with liraglutide (200 micrograms per kg—Novo Nordisk—Denmark). Following insulin challenge, blood glucose levels were measured as described in the main manuscript. Next to arginine challenge, at each time point, one animal per genotype was sacrificed immediately for serum insulin level determination using RIA (Linco). Lastly, in the case of liraglutide, the latter was injected 30 min prior to glucose challenge. At each time point, three animals per genotype were sacrificed immediately for serum glucose and insulin level determination.

Setting [3] is: 6 week old POE::Glucre + glucagon.

`CN(N=O)C(=O)N[C@H]1C(O)O[C@H](CO)[C@@H](O)[C@@H]1O` (mixture of isomers) [STZ, streptozotocin]: in the test on β-cells, the “β-cell loss following STZ treatment” value is “more than 95%”.
In the case of `N=C(N)NCCC[C@H](N)C(=O)O` [arginine], the “Insulin secretion after arginine challenge” value with POE::Glucre β-cells is on record as “able to elicit an insulin secretion”.
glucagon: in the test on POE::Glucre pancreata [1], the “Arx transcript (real time RT-PCR)” value amounted to 15 ± 10%, the “Glucagon transcript (real time RT-PCR)” value worked out at 18 ± 9%, the “Insulin transcript (real time RT-PCR)” value was found to be 285 ± 52% and the “Ngn3 transcript (real time RT-PCR)” value is recorded as 475 ± 81%. Also, in the test on POE::Glucre pancreata [1], the “Nkx6.1 transcript (real time RT-PCR)” value is on record as 183 ± 20%, the “Pax4 transcript (real time RT-PCR)” value is 555 ± 91%, the “Pdx1 transcript (real time RT-PCR)” value was 279 ± 62% and the “Reg3b transcript (real time RT-PCR)” value is reported as 434 ± 63%. Moreover, in the test with POE::Glucre pancreata [2] (3-week-old POE::Pdx1Cre, POE::Glucre, POE::Pax6cre mice injected twice daily with glucagon during three weeks, vs controls), the Islet size result was “significant decrease in islet size”. Also, in the test on POE::Glucre pancreata [2] (setting [3]), the Glucagon-positive cell count is reported as 6 ± 4**^# per square centimetre and the Insulin-positive cell count is 394 ± 132**^## per square centimetre. In addition, the “BrdU (1 week) labelled cell count” value in the test with POE::Glucre pancreata [2] (6 week old POE::Glucre + glucagon, BrdU at 5 weeks of age, examination a week later) is reported as 28 ± 7^# per square centimetre. For the same molecule, the Ngn3-positive cell count in the test on POE::Glucre pancreata [2] (6 week old POE::Glucre + glucagon, count indicative (high background)) is listed as 38 ± 11^# per square centimetre. Moreover, the “% of insulin released reported to the total insulin cell content/2 h” value (from here on “% of insulin released reported”) in the test on isolated islets (3-week old Control islets) is given as 8.9 ± 1.1%. The “% of insulin released reported” value in the test on isolated islets (3-week old POE::Glucre islets) was determined as 10.6%. Further, the “% of insulin released reported” value in the test on isolated islets (12-week old Control islets) was 9.5 ± 0.8%. Also, the “% of insulin released reported” value with isolated islets (12-week old POE::Glucre islets) is 6.6 ± 1.2%.
In the case of “insulin: Actrapid insulin, Novo Nordisk, Denmark”, the “Glycemia after insulin challenge” value with POE::Glucre animals is listed as “did not observe any significant modification of the glycemia”.
